Test results as given in patent publication US20060079453A1, “Hla binding peptides and their uses” (priority 2002, published 2006).
pIC50: −log10 of the molar value. Like-named read-outs stand apart in the source and are kept apart here. No end group written: not given here.

Key:
Assay in all cases: biochemical
Assay type in all cases: binding
HLA-A*3101 = HLA-A*3101 (Homo sapiens, UniProt P04439, A270S/D185E/E176V/E277Q/F33T/G231S/G80R/H175R/I121M/I218V/I322F/K168Q/L300P/L318F/M331R/P217A/Q94H/R138Q/T323A/T345S/T97I/V358M)
HLA-A*1101 = HLA-A*1101 (Homo sapiens, UniProt P04439, A114D/D185E/E176A/F33Y/L180Q/S129P/T187R)
HLA-A*0301 = HLA-A*0301 (Homo sapiens, UniProt P04439)
HLA-A*6801 = HLA-A*6801 (Homo sapiens, UniProt P04439, A269V/D185E/E176V/E277Q/E87N/F33Y/G231S/I121M/I166T/I218V/L180W/L300P/L318F/N151K/P208A/P217A/Q86R/R169H/T345S)
HLA-A*3301 = HLA-A*3301 (Homo sapiens, UniProt P04439, A270S/D185E/E176V/E277Q/E87N/F33T/G231S/H175R/I121M/I218V/I322F/K168Q/K210R/L300P/L318F/M331R/P217A/Q86R/Q94H/R138Q/T323A/T345S/T97I/V358M/Y195H)
[1] = read-out: A*3101 binding affinity (expressed as an IC50)
[2] = read-out: A*1101 binding affinity (expressed as an IC50)

Sequence | pIC50 (HLA-A*3101) | pIC50 (HLA-A*1101) | pIC50 (HLA-A*0301) | pIC50 (HLA-A*6801) | pIC50 (HLA-A*3301) | pIC50 (HLA-A*3101; [1]) | pIC50 (HLA-A*1101; [2]) | pIC50 (HLA-A*6801; read-out: A*6801 binding affinity (expressed as an IC50)) | pIC50 (HLA-A*0301; read-out: A*0301 binding affinity (expressed as an IC50))
RVCLLFYSKVR | 6.66 | 6.72 | 6.11 | – | – | – | – | – | –
RVCLLFYSR | 7.29 | – | 6.36 | 6.16 | – | – | – | – | –
RVHNIAGHYR | 7.66 | 7.68 | 7.52 | 7.74 | – | – | – | – | –
RVLSKISEYR | 7.62 | 7.08 | 7.47 | – | 6.71 | – | – | – | –
SIPHAACHR | 6.63 | – | – | – | 6.60 | – | – | – | –
SISGKYDIK | 4.55 | 7.30 | 5.68 | 5.76 | – | – | – | – | –
SLPHAACHK | 6.66 | 7.18 | 7.49 | 6.18 | – | – | – | – | –
SQVSNSDSYK | 4.61 | 7.08 | 5.78 | – | < 4.76 | – | – | – | –
STCRSSRTRR | 6.82 | – | 5.52 | 6.51 | – | – | – | – | –
STLPEGPGPGR | 7.55 | – | – | 7.52 | 6.09 | – | – | – | –
TFVHEIELK | 5.08 | – | 5.35 | – | 5.38 | – | – | – | –
TTLEKLTNR | 7.38 | 6.09 | 5.70 | – | 7.43 | – | – | – | –
TVQGPGPGEK | 5.01 | 8.47 | 6.66 | – | 3.99 | – | – | – | –
VQLDIQSTR | – | 5.54 | 4.82 | – | 5.34 | – | – | – | –
VSIKVGGQLK | – | – | – | – | – | 4.24 | 7.07 | – | –
VSIRVGGQTR | 6.33 | 6.62 | – | – | 5.07 | – | – | – | –
VTGPGPGPVWK | 4.89 | 7.62 | 5.54 | – | < 3.99 | – | – | – | –
VTVKIGGQLK | – | – | – | – | – | 4.61 | 7.21 | – | –
VTVKIGGQLR | – | – | 4.72 | 7.28 | 5.42 | – | – | – | –
VTVKTEGQLK | – | – | – | – | – | 5.34 | 7.64 | 7.52 | 6.19
VTVRIGGQLK | – | 7.82 | 6.65 | 7.31 | – | – | – | – | –
VVADLRIVYR | – | 7.74 | 6.29 | 7.80 | – | – | – | – | –
YFVYGTTLEK | 5.66 | 7.21 | 6.69 | 7.28 | – | – | – | – | –
